Assay results taken from patent publication US20260212953A1, “An Integrative Framework to Identify Therapeutic Molecules for Treating Preterm Birth” (The Regents of the University of California, priority 2023, published 2026).
Entries after “also recorded” stand apart in the source; their conditions may differ.

What was measured:
[1] = tested on: primary human uterine smooth muscle cells (HUtSMC); assay: Collagen gel contraction assay; assay type: cell-based; details: for effect on HUtSMC contraction, contractile state stimulated by oxytocin: 100 nM oxytocin, OXY+DMSO as control; for reduction of oxytocin-induced myometrial contractility: on average over the four named pre-clinical drugs; for effect on HUtSMC contraction, quiescent state: PBS+DMSO as control
Source text: We performed experiments to determine the functional roles of the small molecules in regulating labor timing. Because labor onset is hallmarked by muscle contraction in the uterus, we asked whether these small molecules could alter smooth muscle contraction in the uterus. We performed collagen gel contraction assays on primary human uterine smooth muscle cells (HUtSMC) (Ying et al., 2015) to examine the modes of action of the top 9 candidate drugs from our prediction (FIG. 5D). For each drug, we tested its effect on modulating HUtSMC contractility in stimulated (by oxytocin to mimic labor-like phenotypes) and quiescent states by treating cells with oxytocin and vehicle, respectively. In either condition, we determined the pharmacological effects of our identified compounds on cellular contraction (each with at least 8 replicates).
Primary Human Uterine Smooth Muscle Cells (HUISMC) were purchased from PromoCells (Cat #C-12575, Fisher Scientific, MA). Collagen gel contraction assays were performed following (Kita et al., 2008; Ying et al., 2015) with modifications. Briefly, 150 ul of collagen (Cat #5074, SigmaAldrich) was added to each well in a 48-well plate. 80,000 HUtSMC suspension in 300 ul Smooth Muscle Cell Growth Basal Medium (Lonza #CC-3181) were seeded to each well after collagen polymerization for an hour. The cells were then treated with either testing compounds or DMSO in the presence of 100 nM oxytocin or PBS control. We carefully detached the collagen from the wells by tips after 1 hour incubation at 37° C., and fixed the cells with 4% paraformaldehyde in PBS for 30 minutes after 18 hours to ensure the equivalent culture durations for all groups before imaging. We captured bright-field images with microscope systems (AmScope, Irvine, CA), and measured the gel diameters in the captured images by ImageJ where the fold changes to no cell control were taken for statistical analysis. At least three biological replicates were performed for each compound, and technically triplicates were included in each biological replicate. Information about small molecules in the study could be found in Table 4.

preterm birth = details: daily low-dose; women of their first pregnancies; cited from earlier work
[2] = tested on: primary myometrial cell cultures; assay: RNA-Seq of primary myometrial cell cultures treated with FSK or IL-1B (Stanfield et al., 2019a); assay type: cell-based, human; details: published RNA-Seq data re-examined; P=0.68
Source text: Performing functional enrichment analysis, we observed that the 69 Group I genes were highly enriched for functions associated with the regulation of muscle contraction (FDR=8.10e-4), more specifically with relaxation of muscle (FDR=2.71e-3, FIG. 3H). This explained their elevated expression prior to labor as well as their down-regulation upon delivery to promote muscle contractility.
Note that inflammatory factors are known to promote muscle contractility during labor (Khanjani et al., 2011; Mendelson et al., 2019), explaining the down-regulation of Group II genes before labor and their activation during labor. We examined primary myometrial cell cultures treated with IL-1B to mimic tissue-level inflammation at the labor onset (Stanfield et al., 2019a). […] In fact, Group-II genes included a key inflammatory activators AP-1 (with its subunits JUN and FOS), which play a central role in regulating smooth muscle contractility proteins at labor onset (Mendelson et al., 2019).
We downloaded normalized FPKM gene expression matrix of RNA-seq data (GSE134896 and GSE163773) (Ackerman et al., 2021; Stanfield et al., 2019a) from GEO for primary myometrial cell cultures following treatment with Forskolin and Interleukin-1B, and for primary myometrium samples harvested from 31 women at labor. […]

preterm labor = details: chronic treatment; cited from earlier work
[3] = tested on: smooth muscle cells in other organs; details: literature curation; cited from earlier work
uterine contractility = details: in vivo; cited from earlier work
HUtSMCs = assay: Cell viability of HUtSMCs treated with different concentrations of RKI-1447; assay type: cell-based, human
Source text: These experimental data provided quantitative guidance on its potential clinical deployment. […] As a potent inhibitor of the Rho-kinases ROCKI/II, RKI-1447 has been mainly investigated for therapeutic effects on cancer (Dyberg et al., 2019; Li et al., 2020; Patel et al., 2012), glaucoma (Cush et al., 1995), and nonalcoholic fatty liver disease (Wang and Jiang, 2020), with less focus on putative effects on modulating uterine contractility. […] These observations provided mechanistic basis for our drug discovery and experimental observations (FIGS. 5E and 5F).

recurrent preterm labor = assay: Weekly 17-OHPC injections in women with previous spontaneous preterm labor (longitudinal cohort); assay type: in vivo, human; details: number among 48 study participants; 250 mg weekly i.m., 16 to 36 weeks of gestation
Experimental: We performed a longitudinal patient recruitment in Alabama. The study involved 48 study participants who had previous history of spontaneous preterm labor (Supplementary Table 5 for patient information). All women admitted to the study were with singleton pregnancy and received weekly intramuscular injections of Makena 17-OHPC 250 mg beginning at 16 weeks until 36 weeks of gestation. Among the 48 study participants, 28 were considered responders to the treatment and delivered at term, whereas the remaining 20 were considered non-responders and had spontaneous preterm birth after the treatment. We acknowledged the possibility that those considered to be responders might include individuals who delivered at term owing to other reasons and not affected by the treatment. However, if we could observe genetic factors indeed differentiating the two groups, especially those involved in progesterone signaling, the observation then should be explained by progestin treatment.
We performed longitudinal recruitment of 48 women in Alabama who had previous history of spontaneous preterm labor. All women admitted to the study were with singleton pregnancy and received weekly intramuscular injections of Makena OHP 250 mg beginning at 16 weeks until 36 weeks of gestation. This study was approved by Stanford Institutional Review Board (IRB #21956). […]

[H]/N=C(/N)SCCCn1cc(C2=C(c3cn(C)c4ccccc34)C(=O)NC2=O)c2ccccc21 [bisindolylmaleimide-ix]
effect on HUtSMC contraction, contractile state stimulated by oxytocin [1]: attenuated myometrial contraction; also recorded: attenuated oxytocin-induced myometrial contractility
effect on myometrial cell contractility in either quiescent or contractile state [1]: altered myometrial contractility
reduction of oxytocin-induced myometrial contractility [1]: 15.73%

O=c1cc(N2CCOCC2)oc2c(-c3ccccc3)cccc12 [LY294002]
reduction of oxytocin-induced myometrial contractility [1]: 15.73%

CC(=O)Oc1ccccc1C(=O)O [aspirin]
reduction of the risk of early preterm birth (before 34 gestational weeks) (preterm birth): 25%
reduction of the risk of preterm birth (before 37 gestational weeks) (preterm birth): 11%

Brc1c(Br)c(Br)c2[nH]nnc2c1Br [4,5,6,7-tetrabromobenzotriazole]
effect on HUtSMC contraction, contractile state stimulated by oxytocin [1]: attenuated myometrial contraction
effect on HUtSMC contraction, contractile state stimulated by oxytocin ([1]; listed as TBBt): attenuated oxytocin-induced myometrial contractility
effect on myometrial cell contractility in either quiescent or contractile state [1]: altered myometrial contractility
reduction of oxytocin-induced myometrial contractility [1]: 15.73%

C[S+]([O-])c1ccc(-c2nc(-c3ccncc3)c(-c3ccc(F)cc3)[nH]2)cc1 (centres unmarked) [SB-203580]
effect on HUtSMC contraction, contractile state stimulated by oxytocin [1]: increased the contraction
effect on myometrial cell contractility in either quiescent or contractile state [1]: altered myometrial contractility
effect on HUtSMC contraction, quiescent state [1]: significantly induced myometrial cell contraction

IL-1B: cytokine used to mimic tissue-level inflammation at the labor onset
response of Group II genes to treatment [2]: overall not responsive

N#CC(=C(/N)Sc1ccccc1N)/C(C#N)=C(\N)Sc1ccccc1N [U0126]
efficacy in a rat model of preterm labor (preterm labor): demonstrated efficacy
effect on myometrial cell contractility in either quiescent or contractile state [1]: absence of signal

O=C(NCc1cccc(O)c1)Nc1nc(-c2ccncc2)cs1 [RKI-1447]
side effects on smooth muscle cells in other organs, particularly cardiotoxicity [3]: minimal effects
effect on uterine contractility in rats (uterine contractility): attenuated uterine contractility
dose-response relationship on myometrial smooth muscle relaxation ([1]; 0 to 10 μM, quiescent (PBS) and contractile (OXY) states): dose-dependent effects on myometrial smooth muscle relaxation
effect on HUtSMC contraction, contractile state stimulated by oxytocin [1]: attenuated myometrial contraction; also recorded: attenuated oxytocin-induced myometrial contractility
effect on myometrial cell contractility in the presence and absence of oxytocin ([1]; both states): the only drug to prevent myometrial cell contractility in the presence and absence of oxytocin
effect on myometrial cell contractility in either quiescent or contractile state [1]: altered myometrial contractility
effect on HUtSMC contraction, quiescent state [1]: strongly reduced the contraction
concentration at emergence of cellular toxicity (HUtSMCs; HUtSMCs): 50 µM
effect on cell viability (HUtSMCs; over a wide dose-range): little effect on cell viability

CCCCCC(=O)O[C@]1(C(C)=O)CC[C@H]2[C@@H]3CCC4=CC(=O)CC[C@]4(C)[C@H]3CC[C@@]21C [17-OHPC, 17-hydroxyprogesterone caproate]
non-responders (spontaneous preterm birth after the treatment) (recurrent preterm labor): 20
responders (delivered at term) (recurrent preterm labor): 28

COc1cccc(-c2cc(=O)c3ccccc3o2)c1N [PD-98059]
efficacy in a rat model of preterm labor (preterm labor): demonstrated efficacy
effect on myometrial cell contractility in either quiescent or contractile state [1]: absence of signal

CN1CCN(Cc2ccc(-c3cnc4[nH]cc(-c5ccc6[nH]ccc6c5)c4c3)cc2)CC1 [URMC-099]
effect on HUtSMC contraction, contractile state stimulated by oxytocin [1]: attenuated myometrial contraction; also recorded: attenuated oxytocin-induced myometrial contractility
effect on myometrial cell contractility in either quiescent or contractile state [1]: altered myometrial contractility
reduction of oxytocin-induced myometrial contractility [1]: 15.73%
